Measured values taken from patent US20080098491A1, “MOUSE MODELS TO STUDY CACHEXIA” (ZOLTAN LABORATORIES LLC, priority 2006, published 2008).

System: MXT mouse mammary tumor
Test: Cisplatin-treated MXT mouse mammary tumor model, PALP and TF (Example 9, Experiment 1)
Assay type: in vivo
Conditions: for Body weight (total weight minus tumor weight) / Total weight / Tumor weight: every second day from day 7 (7-times): cisplatin 3-mg/kg i.p., purified PALP 16, commercial PALP 60, TF 14 mg/kg s.c.
Excerpt: The B16 mouse melanoma and MXT mouse mammary tumors were developed in first generation hybrid BDF1 (C57 B1 female×DBA/2 male) adult female mice kept at specified pathogen free (SPF) hygienic level. These models were chosen for these experiments because these mice have the complete immune system, and both tumors grow very rapidly. To develop the tumors, B16 and MXT tumor tissue fragments of about 0.1-cm^3 were surgically implanted subcutaneously into the intrascapular region to develop the tumors. Each tumor fragment contained about 1-1.5×10^6 cells. The animals were kept in macrolon cages on ventilated rack at 22-24° C. (50-60% humidity) with lighting regimen of 12/12 h light/dark. The animals had free access to tap water and were fed with sterilized standard diet (Charles River VRF1, Germany) ad libitum. The animals were taken care of according to the “Guiding Principle for the care and use of Animals” based upon the Helsinki declaration and they were approved by the local ethical committee.
In case of both tumor models the tumor size was usually in the range of 0.2 to 0.5-g when treatments started 7-11 days after tumor implantation; the mice were selected so that in the same treatment group the difference in tumor size was no greater than 0.1 gram. In some experiments, the test proteins were suspended in physiological saline and injected in 50-μl volume subcutaneously in the vicinity of tumor (within 1-cm of tumor margin). In other experiments, the test proteins were dispersed in Vaselinum cholesteratum and used topically; 150-mg cream was applied on the tumor and the vicinity of tumor area (with about 0.5-cm of the tumor margin). The tumor volume was determined by using calipers; this technique is well known to one having ordinary skill in the art. Tumor volume was calculated according to the generally accepted formula: V=a^2×b×7r/6, where “a” and “b” mean the shortest and longest diameter, respectively, of the measured tumor.
Experiment 1. The mouse MXT mammary tumor was developed as described in Example 3. In the first group, animals remained untreated during the whole observation period. In the second group, starting on the 7th day after tumor implantation, mice were intraperitoneally (i.p.) administered 3-mg per 1-kg total weight of cisplatin 7-times every second day. In the third group, starting on the 7th day after tumor implantation, mice were simultaneously administered 3-mg per 1-kg of cisplatin i.p. and 16-mg per 1-kg of purified PALP s.c. In the fourth group, starting on the 7th day after tumor implantation, mice were simultaneously administered 3-mg per 1-kg of cisplatin i.p. and 60-mg per 1-kg of commercial PALP s.c. In the fifth group, starting on the 7th day after tumor implantation, mice were simultaneously administered 3-mg per 1-kg of cisplatin i.p. and 14-mg per 1-kg of commercial TF (T 3309 in the Sigma catalog) s.c. Each treatment was performed 7-times on every second day. Each group included 7 animals. The mean values for total weight, tumor weight and body weight (the difference between total and tumor weight) are shown in TABLE 6.

[1] = day 7 after tumor transplantation
[2] = day 11 after tumor transplantation
[3] = day 14 after tumor transplantation
[4] = day 16 after tumor transplantation
[5] = day 18 after tumor transplantation
[6] = day 21 after tumor transplantation

N.N.[Cl][Pt][Cl] [Cisplatin, cisplatin]
Body weight (total weight minus tumor weight) [1]: 22.45 g
Total weight [1]: 22.70 g
Tumor weight [1]: 0.25 g
Body weight (total weight minus tumor weight) [2]: 22.10 g
Total weight [2]: 23.10 g
Tumor weight [2]: 1.00 g
Body weight (total weight minus tumor weight) [3]: 19.50 g
Total weight [3]: 21.70 g
Tumor weight [3]: 2.20 g
Body weight (total weight minus tumor weight) [4]: 16.90 g
Total weight [4]: 20.10 g
Tumor weight [4]: 3.20 g
Body weight (total weight minus tumor weight) [5]: 16.30 g
Total weight [5]: 20.10 g
Tumor weight [5]: 3.80 g
Body weight (total weight minus tumor weight) [6]: 15.10 g
Total weight [6]: 19.20 g
Tumor weight [6]: 4.10 g
Decrease in body weight (from day 11 to day 23, cisplatin 3-mg/kg i.p. every second day): ~33%
